Source: US9447418B2, “Pro- and anti-angiogenic treatments” (UNIVERSITY OF BRISTOL, priority 2007, dated 2016)

Key:
Format in all cases: cell-based, human
[1] = system: VEGF terminal exon splice site selection; assay: RT-PCR of podocyte mRNA for proximal (VEGFxxx) and distal (VEGFxxxb) spliced isoforms; details: podocytes; for TGF-β1 induced VEGFxxxb expression, effect of inhibitor: FIG. 6; for TGF-β1 mediated increased intensity of the VEGFxxxb band (RT-PCR), effect of inhibitor: confirmed by Western blotting and ELISA
Procedure: To confirm that the changes seen by TGF-β1 were at the mRNA level, and the effect of inhibitors acted at the mRNA level, real time polymerase chain reaction (RT-PCR) was carried out using primers that detect both proximal splice isoforms (VEGFxxx, 135 bp band) and distal spliced isoforms (VEGFxxxb, 74 bp band). […] This increase in intensity was inhibited by SB203820, but not by the p42/p44MAPK inhibitor PD98059. […] These findings were confirmed by Western blotting (FIG. 5B) and ELISA (FIG. 5C).

[2] = system: VEGF terminal exon splice site selection; assay: VEGF isoform ELISA of podocytes (PCIP) after growth factor / inhibitor treatment; details: for increase of VEGFxxxb protein level / increase of total VEGF protein expression: 48 h
Procedure: (§1) Proliferating Conditionally Immortalized Podocytes (PCIPs) were derived from cell lines conditionally transformed from normal human podocytes with temperature-sensitive mutant of immortalized SV-40 (Simian Virus 40) T-antigen. At the permissive temperature of 33° C. the SV-40 T-antigen is active and allows the cells to proliferate rapidly (46). PCIPs were cultured in T75 flasks (Greiner) in RPMI-1640® cell culture medium (Sigma) with 10% FBS (Foetal Bovine Serum), 1% ITS (Insulin Transferrin Selenium) (Sigma), 0.5% PSS (Penicillin Streptomycin Solution) (Sigma) and grown to 95% confluency. Then cells were split to six well plates (1×10^4 cells per well) and grown until 95% confluent.
We investigated time- and dose-dependent effects of Insulin-like Growth Factor 1 (IGF-1), Transforming Growth Factor β1 (TGF-β1) and Platelet-Derived Growth Factor (PDGF) on production of VEGF isoforms from cultured PCIPs. Twenty-four hours before treatment cultured medium was replaced with serum free RPMI-1654 medium (Sigma) containing 1% ITS (Sigma) and 0.5% PSS (Sigma). Subsequently, the medium was replaced with fresh serum free RPMI-1654 medium (Sigma) containing 1% ITS (Sigma), 0.5% PSS (Sigma) and increasing concentrations of IGF-1 (Sigma), or TGF-β1 (Sigma) or 40 ng/mL PDGF (Sigma). The conditioned media were collected 24 or 48 hours after stimulation (IGF-1, TGF-β1) and 48 hours (PDGF).
(§2) Total VEGF concentrations in the neat RPE conditioned medium were measured using a standard DuoSet VEGF ELISA (R&D) according to manufacture's instruction. VEGFxxxb was determined with a similar sandwich ELISA, using for capture a monoclonal biotinylated mouse anti-human antibody raised against the terminal nine amino acids of VEGF165b (R&D Systems Cat No. MVRL56/1) and a standard curve for this assay built with recombinant human VEGF165b (R&D). This MVRL56/1 antibody is a commercially available affinity purified mouse monoclonal IgG1 antibody, that has been characterised previously (42, 54).

[3] = system: VEGF terminal exon splice site selection; assay: Western blotting of podocyte cell lysate
Procedure: as §1
We investigated time- and dose-dependent effects of Insulin-like Growth Factor 1 (IGF-1), Transforming Growth Factor β1 (TGF-β1) and Platelet-Derived Growth Factor (PDGF) on production of VEGF isoforms from cultured PCIPs. Twenty-four hours before treatment cultured medium was replaced with serum free RPMI-1654 medium (Sigma) containing 1% ITS (Sigma) and 0.5% PSS (Sigma). […]
Protein samples were dissolved in Laemmli buffer, boiled for 3-4 min and centrifuged for 2 min at 20,000 g to remove insoluble materials. […] The immunoreactive bands corresponding to panVEGF and VEGFxxxb in each treatment were quantified by ImageJ analysis and normalised to those of β-tubulin.

[4] = system: VEGF terminal exon splice site selection; assay: IGF-induced proximal splicing (PSS) in podocytes by RT-PCR and ELISA; details: for IGF-induced increase in PSS, effect of inhibitor: podocytes
From the text: Treatment of podocytes with IGF increases PSS as evidenced by RT-PCR and ELISA. This increase is inhibited by the PKC inhibitor BIM and the SR protein kinase inhibitor SERPIN340 (FIGS. 12 and 13).

[5] = system: VEGF terminal exon splice site selection; assay: VEGF isoform ELISA of RPE cells after agonist stimulation (IGF-1, TNF-α)
Procedure: Human donor eyes were obtained within 10-30 hours post-mortem from Bristol Eye Bank, Bristol, United Kingdom. Choroid-RPE sheets dissected from ocular globes were fragmented in a small amount of Dulbecco's Modification of Eagle's Medium: Ham's F12 mixture (DMEM: F12) (1:1)+GlutaMAX® supplement (Gibco) and RPE cells were isolated by digestion with 0.3 mg/ml collagenase (Gibco) for 15 min at 37° C. RPE cells were initially cultured for 5 days in the presence of 2.5% v/v foetal bovine serum (FBS) (Gibco) to prevent proliferation of fibroblasts and until the cell cultures became established. After the first passage cell culture was maintained in DMEM:F12 (1:1), supplemented with 10% v/v FBS and antibiotic/antimycotic solution (Sigma). The once passaged cells were homogeneous and contained only RPE as characterized by immunhistochemistry with anti-cytokeratin monoclonal antibody (Sigma). Cultures of RPE were routinely subcultured by trypsinisation (trypsin/EDTA, Sigma). RPE cells at passage 3-4 were plated onto 12.5 cm^2 Petri dishes (Nunc) and allowed to reach 70-80% confluency.
(§3) To determine the effects of agonists the RPE cells were cultured in freshly-replaced medium in the absence of FBS for 24 hours prior to agonist stimulation. IGF-1 (Sigma) and TNF-α (Sigma) were prepared in serum-free medium and were added in the volume of 2 ml at various concentrations, as indicated in the discussion below. No changes in cell morphology were noted on visualisation of the cells after stimulation. 24 hours later conditioned media in all experimental treatments were collected, spun down to remove debris, and placed immediately into −80° C. until the enzyme-linked immuno-sorbent assay (ELISA) was performed. The RPE cells were washed 3 times with ice-cold PBS and lysed in Laemmli buffer for Western blotting.
as §2
Due to relatively low levels of VEGFxxxb found free in the supernatant of RPE cells, for VEGFxxxb ELISA total protein in conditioned medium was precipitated with trichloroacetic acid (TCA). For this purpose 250 μl ice cold 24% TCA and 6.25 μl 2% Sodium Deoxycholate were added to 700 μl conditioned medium and left on ice for 15 min. After centrifugation at 5000×g for 10 min, pellets were collected and resuspended in lysis buffer, containing: 20 mM Tris, pH7.4, 1.5% w/v Triton X-100, 150 mM NaCl, 10% w/v glycerol and protease inhibitors cocktail (Sigma). The pH in the pelleted samples was adjusted to 7.4 with 1.5M Tris (pH8.8). The total protein content in the pellet was measured in conventional manner using bicinchoninic acid (BCA) reagent (Sigma).

[6] = system: VEGF terminal exon splice site selection; assay: Western blotting of RPE cells after IGF-1
Procedure: as §3
Protein samples were dissolved in Laemmli buffer, boiled for 3-4 min and centrifuged for 2 min at 20,000 g to remove insoluble materials. 15 μg protein per lane were separated by Sodium Dodecyl Sulfate Polyacrylamide Gel Electrophoresis (SDS/PAGE) (12%) and transferred to 0.2 μm nitrocellulose membrane. […] Subsequently the membranes were incubated with secondary horseradish peroxidase (HRP) conjugated antibody, and immunoreactive bands were visualised using enhanced chemiluminescence (ECL) reagent (Pierce). […]

[7] = RT-PCR and ELISA (FIGS. 12 and 13)
[8] = podocytes, IGF-1, compared with control (FIG. 2B)

For `COc1cccc(-c2cc(=O)c3ccccc3o2)c1N` [PD98059], the “TGF-β1 induced VEGFxxxb expression, effect of inhibitor” value [1] was “not affected”.

In the case of `C[S+]([O-])c1ccc(-c2nc(-c3ccncc3)c(-c3ccc(F)cc3)[nH]2)cc1` (stereo not shown) [SB203580, reference compound], the “TGF-β1 mediated increased intensity of the VEGFxxxb band (RT-PCR), effect of inhibitor” value ([1]; TGF-β1 1 nM) is reported as “inhibited”, the “TGF-β effect on expression of VEGFxxxb or VEGFxxx isoforms in presence of inhibitor” value ([2]; podocytes (FIG. 5B)) is reported as “did not increase expression” and the “expression of VEGFxxx isoforms” value ([2]; podocytes treated with SB203580, below the detection limit) is reported as “did not increase”. For the same compound, the VEGF165b expression ([2]; podocytes treated with SB203580, untreated 850±50 pg/mg protein (FIG. 5A)) was 450 ± 80 pg/mg and the “TGF-β1 upregulation of VEGF165b by Western blotting, effect of inhibitor” value ([3]; podocytes (FIG. 5C)) was “inhibited”.

For `O=C(Nc1cc(C(F)(F)F)ccc1N1CCCCC1)c1ccncc1` [SERPIN340], the “IGF-induced increase in PSS, effect of inhibitor” value [4, 7] was “inhibited”.

In the case of `CCN1/C(=C/C(C)=O)Sc2ccc(OC)cc21` [TG003], the “TGF-β1 induced VEGFxxxb expression, effect of inhibitor” value [1] is reported as “inhibited” and the “TGF-β1 mediated increased intensity of the VEGFxxxb band (RT-PCR), effect of inhibitor” value ([1]; TGF-β1 1 nM) is reported as “inhibited”.

“IGF-1: Insulin-like Growth Factor 1 (Sigma), growth factor favouring proximal splice site selection” was tested, and the “share of VEGF produced as VEGFxxxb” value ([5]; RPE cells after IGF-1 treatment, originally 80±32%) was 5±20%, the VEGFtotal ([5]; RPE cells, 100 nM IGF-1, N=6, untreated 217±112) was 1656±448 pg/mg protein and the VEGFxxxb ([5]; RPE cells, 100 nM IGF-1, untreated 78±12) was 64±14 pg/mg protein. The VEGFxxx ([5]; RPE cells, 100 nM IGF-1, untreated 138±117) was 1592 pg/mg protein, the “proximal splice site selection (PSS)” value ([4]; podocytes treated with IGF, RT-PCR and ELISA (FIGS. 12 and 13)) was “increases” and the “VEGF165b by Western blotting” value ([6]; 100 nM IGF (FIG. 3A)) was “downregulated”. For the same compound, the “total VEGF relative to loading control by Western blotting” value ([6]; 100 nM IGF, β-actin loading control (FIG. 3B)) was “increase”, the VEGF165b levels [2, 8] was “decrease” and the “total VEGF levels” value [2, 8] was “significant increase”.

For “TGF-β1: Transforming Growth Factor β1 (Sigma), growth factor favouring distal splice site selection”, the “relative density of the lower, VEGFxxxb, band (RT-PCR)” value ([1]; TGF-β1 1 nM) was “increase”, the “fall of VEGFxxx expression levels” value ([2]; podocytes, 1 nM TGF-β) was 70±7% and the “increase of VEGFxxxb protein level” value ([2]; podocytes, TGF-β1 0.5 nM) was 2.9±1.4 fold. The “increase of total VEGF protein expression” value ([2]; podocytes, TGF-β1 0.5 nM) was 2.25±0.65 fold, the “increase of VEGFxxxb protein level” value ([2]; podocytes, TGF-β1 1 nM) was 7.2±4.7 fold and the “increase of total VEGF protein expression” value ([2]; podocytes, TGF-β1 1 nM) was 4.63±0.61 fold. The “VEGF165b and VEGF121b isoforms by Western blotting” value ([3]; podocyte cell lysate, 0.5 and 1 nM TGF-β1 (FIG. 4B)) was “upregulated”.

TNF-α was tested, and the “decrease of VEGFxxxb isoforms” value ([5]; RPE cells, 50 ng/ml TNF-α) was 46±3%, the “mean increase of VEGFxxx isoforms” value ([5]; RPE cells, 50 ng/ml TNF-α, n=3) was 4.5±2.0 fold and the VEGFxxx isoforms ([5]; RPE cells, 50 ng/ml TNF-α, n=3, untreated 182±83) was 825±366 pg/mg protein. It also gave a VEGFxxxb isoforms ([5]; RPE cells, 50 ng/ml TNF-α, untreated 99±26) of 42±13 pg/mg protein.

bisindolyl maleimide [BIM] was tested, and the “IGF-induced increase in PSS, effect of inhibitor” value [4, 7] was “inhibited” and the VEGF isoform favoured ([4]; summary statement) was “favoured VEGF165b”.
